In the first test the test system is MCF-7 cells. Put plainly: Cell cycle distribution by flow cytometry. Particulars: 0.1 nM, 24 h. Type of test: cell-based, human. For orientation: In flow cytometry, cells or beads pass a laser one at a time.
For the molecule `C[C@]12CC[C@@H]3c4ccc(O)cc4CC[C@H]3[C@@H]1CC[C@@H]2O` [Compound E2, 17β-estradiol, reference compound], the “Cell Cycle (%) G0/G1” value is on record as 17.34 ± 0.35 *^,‡,§ %, the “Cell Cycle (%) G2/M” value is reported as 54.51 ± 0.57 *^,‡,§ % and the “Cell Cycle (%) S” value is 28.15 ± 0.52 *^,‡,§ %.

The test is the same for the next values; noted with them: 1 nM, 24 h.
Turning to `C[C@]12CC[C@@H]3c4ccc(O)cc4CC[C@H]3[C@@H]1CC[C@@H]2O` [Compound E2, 17β-estradiol, reference compound], the “Cell Cycle (%) G0/G1” value is 25.34 ± 0.36 *^,‡,§ %, the “Cell Cycle (%) G2/M” value is recorded as 45.14 ± 0.33 *^,‡,§ % and the “Cell Cycle (%) S” value is listed as 29.52 ± 0.46 *^,‡,§ %.

The next test concerns the target estrogen receptor α.
Test: not given
Particulars: Table S1, PDB ligands; cited from earlier work.
Usually pKi stands for the negative decadic logarithm of the Ki, by convention in mol/L. For the molecule `CC1CCN(CCOc2ccc(C(=O)c3c(-c4ccc(O)cc4)sc4cc(O)ccc34)cc2)CC1` [Compound 2R6W], the pKi was 9.4.
Regarding `O=C(c1ccc(OCCN2CCCC2)cc1)c1c(-c2ccc(O)cc2)sc2cc(O)ccc12` [Compound 2R6Y], the negative-log Ki (pKi) is given as 9.5.

The same test, now with this note: cited from earlier work.
As a reminder, the pIC50 is the IC50 on a negative log10 scale, so that one unit is a factor of ten. Take `Oc1ccc([C@@H]2Sc3cc(O)ccc3O[C@@H]2c2ccc(OCCN3CCCCC3)cc2)cc1` [Compound 1SJ0]: the pIC50 is recorded as 9.09.
With `CC1(O)CCC2c3ccc4cc(O)ccc4c3CCC21C` (stereo not drawn) [Compound 2B1Z], the negative logarithm of the IC50 (pIC50) is on record as 7.10.

The test is the same for the next values; noted with them: crystal test set TSCRY (WT and MUT complexes); cited from earlier work.
For `CC(C)(c1ccc(O)cc1)c1ccc(O)cc1` [Compound 3UU7], the pKi is 8.79.
As for `Oc1ccc(C(c2ccc(O)cc2)(C(F)(F)F)C(F)(F)F)cc1` [Compound 3UUA], the pKi was 8.79.
As for `Oc1ccc(C(=C(Cl)Cl)c2ccc(O)cc2)cc1` [Compound 3UUC], the pKi is 5.70.
On to `OCc1cc(Br)c(-c2ccc(O)cc2)c(-c2ccoc2)c1` [Compound 4DMA], for which the pKi was 5.60.
With `C[C@H]1CCC[C@H](O)CCCCCc2cc(O)cc(O)c2C(=O)O1` [Compound 4MG8], the pKi is 10.00.
Consider `O=C(c1ccc(O)cc1O)c1ccc(O)cc1O` [Compound 4MGC], for which the pKi was 7.00.
Consider `C[C@H]1CCC[C@H](O)CCC/C=C/c2cc(O)cc(O)c2C(=O)O1` [Compound 4TUZ], for which the pKi is reported as 10.00.

Staying with this test, now noted: ligands of mutated (MUT) ERα complexes, training set; cited from earlier work.
Consider `Oc1ccc(-c2n[nH]c3cc(O)ccc23)c(O)c1` [Compound 2QA6], for which the negative-log IC50 (pIC50) is listed as 7.30.
Take `CC1CCN(CCOc2ccc(C(=O)c3c(-c4ccc(O)cc4)sc4cc(O)ccc34)cc2)CC1` [Compound 2R6W]: the pIC50 was 8.60.
On to `O=C(c1ccc(OCCN2CCCC2)cc1)c1c(-c2ccc(O)cc2)sc2cc(O)ccc12` [Compound 2R6Y], for which the pIC50 is given as 8.90.
On to `Cc1cc(F)ccc1-c1c(Cc2ccc(/C=C/C(=O)O)cc2)c2ccc(O)cc2oc1=O` [Compound 5AK2], for which the pIC50 was 8.40.

The test is the same for the next values; noted with them: ligands of wild-type (WT) ERα complexes, training set; cited from earlier work.
Consider `CC/C(=C(\c1ccccc1)c1ccc(/C=C/C(=O)O)cc1)c1ccccc1` [Compound 1R5K], for which the negative-log IC50 (pIC50) is 7.40.
Take `Oc1ccc2c(c1)CCN(c1ccccc1)[C@H]2c1ccc(N2CCC3CCCCN3C2)cc1` (stereo partly drawn) [Compound 1XQC]: the negative-log IC50 (pIC50) was 7.20.

The test is the same for the next values; noted with them: modeled test set TSMOD1; cited from earlier work.
Regarding `O=c1cc(-c2ccccc2)oc2cc(O)c(O)c(O)c12` [Baicalein], the pIC50 was 4.71.
Turning to `Cc1ccccc1N=Cc1cn(-c2ccccc2)nc1-c1ccccc1` [Compound I11-4a1a], the pIC50 is 4.33.
In the case of `Cc1cccc(C)c1N=Cc1cn(-c2ccccc2)nc1-c1ccccc1` [Compound I11-4a2], the pIC50 is 4.13.
As to `Cc1ccc(N=Cc2cn(-c3ccccc3)nc2-c2ccccc2)cc1` [Compound I11-4a3b], the pIC50 is 4.25.
Take `Brc1ccc(N=Cc2cn(-c3ccccc3)nc2-c2ccccc2)cc1` [Compound I11-4a5]: the pIC50 was 5.52.
As for `Cc1ccc(N=Cc2cn(-c3ccccc3)nc2-c2ccccc2)cc1[N+](=O)[O-]` [Compound I11-4a8], the pIC50 is given as 5.4.
Consider `Clc1ccccc1CN=Cc1cn(-c2ccccc2)nc1-c1ccccc1` [Compound I11-4a9], for which the pIC50 was 4.89.
As to `FC(F)(F)c1ccccc1CN=Cc1cn(-c2ccccc2)nc1-c1ccccc1` [Compound I11-4a10], the pIC50 is reported as 3.61.
Take `Cc1ccccc1N=Cc1cn(-c2ccc([N+](=O)[O-])cc2)nc1-c1ccccc1` [Compound I11-4b1]: the pIC50 is given as 3.58.
As for `Cc1ccc(N=Cc2cn(-c3ccc([N+](=O)[O-])cc3)nc2-c2ccccc2)cc1` [Compound I11-4b2], the negative logarithm of the IC50 (pIC50) was 3.58.
For the molecule `O=[N+]([O-])c1ccc(-n2cc(C=Nc3ccc(Cl)cc3)c(-c3ccccc3)n2)cc1` [Compound I11-4b3], the pIC50 is 3.61.
`Cc1ccc(N=Cc2cn(-c3ccc([N+](=O)[O-])cc3)nc2-c2ccccc2)cc1[N+](=O)[O-]` [Compound I11-4b6]: the pIC50 was 3.63.
For the molecule `COc1ccc(-c2cc(=O)c3c(O)c(OC)c(OC)cc3o2)cc1O` [Eupatorin], the pIC50 is listed as 5.09.
Regarding `O=c1c(O)c(-c2ccc(O)c(O)c2)oc2cc(O)ccc12` [Fisetin], the negative-log IC50 (pIC50) is listed as 5.38.
Regarding `O=c1c(O)c(-c2ccccc2)oc2cc(O)cc(O)c12` [Galangin], the pIC50 is 4.81.
In the case of `COc1ccc([C@@H]2CC(=O)c3c(O)cc(O)cc3O2)cc1O` [Hesperetin], the pIC50 was 4.4.
For `O=C1C[C@@H](c2ccc(O)cc2)Oc2cc(O)cc(O)c21` [Naringenin], the pIC50 is on record as 4.18.
As for `O=c1c(O)c(-c2ccc(O)c(O)c2)oc2cc(O)cc(O)c12` [Quercetin], the negative-log IC50 (pIC50) was 4.76.

The same test, now with this note: modeled test set TSMOD2; cited from earlier work.
For `Cc1c(-c2ccc(O)cc2)nn(-c2ccc(O)cc2)c1-c1ccc(O)cc1` [Compound I3-I1], the negative-log Ki (pKi) was 7.25.
`CCc1c(-c2ccc(O)cc2)nn(-c2ccc(O)cc2)c1-c1ccc(O)cc1` [Compound I3-I2]: the pKi is listed as 9.08.
For the molecule `CCCc1c(-c2ccc(O)cc2)nn(-c2ccc(O)cc2)c1-c1ccc(O)cc1` [Compound I3-I3], the pKi is given as 9.23.
Take `CCCCc1c(-c2ccc(O)cc2)nn(-c2ccc(O)cc2)c1-c1ccc(O)cc1` [Compound I3-I4]: the negative logarithm of the Ki (pKi) was 8.68.
Take `Cc1c(-c2ccc(O)cc2)nn(-c2ccc(O)cc2)c1-c1ccc(OCCN2CCCCC2)cc1` [Compound I3-I-A1]: the pKi is on record as 7.57.
In the case of `CCc1c(-c2ccc(O)cc2)nn(-c2ccc(O)cc2)c1-c1ccc(OCCN2CCCCC2)cc1` [Compound I3-I-A2], the negative-log Ki (pKi) was 8.60.
Regarding `CCCc1c(-c2ccc(O)cc2)nn(-c2ccc(O)cc2)c1-c1ccc(OCCN2CCCCC2)cc1` [Compound I3-I-A3], the negative-log Ki (pKi) was 8.36.
For `CCc1c(-c2ccc(O)cc2)nn(-c2ccc(O)cc2)c1-c1ccc(OCCN2CCOCC2)cc1` [Compound I3-I-B], the pKi was 8.49.
Turning to `Cc1c(-c2ccc(O)cc2)nn(-c2ccc(O)cc2)c1-c1ccc(OCCN2CCCC2)cc1` [Compound I3-I-C1], the pKi is 7.60.
Consider `CCc1c(-c2ccc(O)cc2)nn(-c2ccc(O)cc2)c1-c1ccc(OCCN2CCCC2)cc1` [Compound I3-I-C2], for which the pKi is recorded as 8.72.
As to `CCc1c(-c2ccc(O)cc2)nn(-c2ccc(O)cc2)c1-c1ccc(OCCN(C)C)cc1` [Compound I3-I-D], the pKi is 8.48.
As to `CCN(CC)CCOc1ccc(-c2c(C)c(-c3ccc(O)cc3)nn2-c2ccc(O)cc2)cc1` [Compound I3-I-E1], the pKi is listed as 8.42.
In the case of `CCc1c(-c2ccc(O)cc2)nn(-c2ccc(O)cc2)c1-c1ccc(OCCN(CC)CC)cc1` [Compound I3-I-E2], the negative logarithm of the Ki (pKi) was 8.74.
On to `CCc1c(-c2ccc(O)cc2)nn(-c2ccc(O)cc2)c1-c1ccc(OCCN2CCCC2=O)cc1` [Compound I3-I-F], for which the pKi is reported as 8.64.
Regarding `CCc1c(-c2ccc(O)cc2)nn(-c2ccc(O)cc2)c1-c1ccc(OCC(O)CO)cc1` (stereo not drawn) [Compound I3-I-G], the negative-log Ki (pKi) is listed as 8.37.
`CC(C)CNc1nc(NCC(C)C)nc(NCC(C)C)n1` [Compound I4-1a]: the pKi was 3.19.
In the case of `CCCNc1nc(NCCC)nc(NCCC)n1` [Compound I4-1b], the negative logarithm of the Ki (pKi) is listed as 3.10.
In the case of `c1ccc(CNc2nc(NCc3ccccc3)nc(NCc3ccccc3)n2)cc1` [Compound I4-1c], the negative logarithm of the Ki (pKi) is 3.39.
With `O=C(C=CC=Cc1ccccc1)CCc1ccccc1` [Compound I6-1], the pKi is 6.19.
Take `CN(C)c1ccc(C=CC=CC(=O)CCc2ccc(O)cc2)cc1` [Compound I6-10]: the pKi is 3.63.
Take `COc1ccc(CCC(=O)C=CC=Cc2ccc(O)c(OC)c2)cc1` [Compound I6-12]: the pKi was 5.86.
For `COc1cc(C=CC=CC(=O)CCc2ccccc2)ccc1O` [Compound I6-14], the negative logarithm of the Ki (pKi) is listed as 6.01.
With `COc1ccc(CCC(=O)C=CC=Cc2ccc([N+](=O)[O-])cc2)cc1` [Compound I6-15], the pKi was 5.63.
As to `O=C(C=CC=Cc1ccc([N+](=O)[O-])cc1)CCc1ccccc1` [Compound I6-16], the negative-log Ki (pKi) is given as 6.29.
Consider `COc1ccc(CCC(=O)C=CC=Cc2ccccc2)cc1` [Compound I6-17], for which the pKi is 5.83.
Consider `COc1ccc(CCC(=O)C=CC=Cc2ccc(N(C)C)cc2)cc1` [Compound I6-18], for which the negative logarithm of the Ki (pKi) was 5.66.
In the case of `CN(C)c1ccc(C=CC=CC(=O)CCc2ccccc2)cc1` [Compound I6-19], the negative-log Ki (pKi) is listed as 6.04.

The same test, now with this note: modeled test set TSMOD3; cited from earlier work.
`O=C1CC(c2ccccc2)Oc2ccc(O)cc21` (stereo not drawn) [6-Hydroxyflavanone]: the pRBA is recorded as 6.05.
In the case of `O=c1cc(-c2ccccc2)oc2ccc(O)cc12` [6-Hydroxyflavone], the pRBA was 6.40.
`O=c1cc(-c2ccc(O)cc2)oc2ccc(O)cc12` [-Dihydroxyflavone]: the pRBA is 3.82.
On to `O=c1c(O)c(-c2ccc(O)cc2)oc2ccc(O)cc12` [-Trihydroxy flavone], for which the pRBA is reported as 3.35.
`O=c1c(-c2ccc(O)c(O)c2)coc2cc(O)ccc12` [-Trihydroxy isoflavone]: the pRBA is 5.35.
As for `O=c1cc(-c2ccccc2)oc2cc(O)c(O)c(O)c12` [Baicalein], the pRBA is reported as 6.05.
For the molecule `COc1ccc(-c2coc3cc(O)cc(O)c3c2=O)cc1` [Biochanin A], the pRBA is given as 5.37.

These data come from publication PMC9101642 (Molecules, 2022).
